Test results as given in US10266564B2, “Cationic lipid cordiarimide hybrid compounds and a process for preparation thereof” (COUNCIL OF SCIENTIFIC & INDUSTRIAL RESEARCH, priority 2014, dated 2019).

Assays:
[1] = test system: PC-3 (human prostate cancer cells); assay: MTT assay for cell viability, PC-3; type: cell-based; conditions: Homo sapiens, 48 h
Experimental: (§1) The human cancer cell lines e.g. HepG2 (hepatocellular carcinoma, ATCC® HB-8065™), PC-3 (human prostate cancer cells, ATCC® CRL-1435™), MCF-7 (breast adenocarcinoma, ATCC® […]), and mouse embryo fibroblasts (NIH/3T3, ATCC® CRL-1658™), used in the present study were obtained from the ATCC (American Type Culture Collection, USA and maintained in RPMI 1640 (Roswell Park Memorial Institute, Merck) with 10% FBS (Merck), supplemented with 1% antibiotic and antimycotic solution (Gibco, USA) at 37° C. in a humidified incubator with 5% CO2. All stock solutions of the compounds were prepared in cell culture grade DMSO (dimethyl sulfoxide) and stored at −20° C. Compounds were diluted in culture media prior to use in experiments. Annexin V-FITC apoptosis detection kits were purchased from Calbiochem. MTT dye was procured from Sigma-Aldrich. All the flow cytometry experiments were performed using a FACScan (Becton Dickinson, Mountain View, Calif.) flow cytometer, equipped with a single 488 nm argon laser.
(§2) Cell viability was assessed by MTT assay, which is based on the reduction of MTT by mitochondrial dehydrogenases of viable cells to form a purple formazan product. Briefly, cells (5-6×10^3/well) were plated in 96 well plates. After incubating overnight, the cells were treated with […] different concentrations (100, 50, 20, 10, 5, 2.5, 1.25 μM) in triplicates with the cationic lipidated cordiarimide and intermediates for 48 h. Subsequently, 10 μL of MTT (10 mg/mL) was added to each well and incubated for 3 h. The MTT formazan formed by viable cells was dissolved in 100 μL of DMSO and shaken for 10 min. The absorbance was measured on an ELISA reader. Each test was repeated at least three times. The concentration of the compound which gives the 50% growth inhibition value corresponding to IC50, was calculated using GraphPad prism 5 software. In the present invention we have screened 26 lipidated cordiarimides and the results are described in table 1.

[2] = test system: HepG2 (hepatocellular carcinoma); assay: MTT assay for cell viability, HepG2; type: cell-based, human; conditions: Homo sapiens, HepG2, 48 h
Experimental: as §1, §2

[3] = test system: MCF-7 (breast adenocarcinoma); assay: MTT assay for cell viability, MCF-7; type: cell-based, human; conditions: Homo sapiens, MCF7, 48 h
Experimental: as §1, §2

[4] = test system: mouse embryo fibroblasts (NIH/3T3); assay: MTT assay for cell viability, NIH/3T3; type: cell-based; conditions: NIH3T3, 48 h
Experimental: as §1, §2

human ligase I = human ligase I (Homo sapiens, UniProt P18858); assay: Ligation assay, DNA ligase I; type: biochemical; conditions: screening, FIG. 4 and FIG. 7
From the text: The ligation assay was done strictly following the assay protocol described in Xi Chen et. al, Cancer Res 2008; 68(9):3169-3177. The DNA molecules 52 mer (5′-3′), 28-mer (5′-3′) and 34-mer (5′-3′) were used to construct a double stranded nicked substrate for the ligase enzyme (FIG. 4). The 34-mer oligo was labelled with 32P-AMP to form a substrate for ligase and to form a ligase-AMP intermediate. During ligation, the ligase would transfer the AMP to the nick forming a phosphodiester bond and seal the nick. The ligated DNA molecule would be larger in size and run higher up on a 7% Urea-containing denaturing acrylamide gel. If an inhibitor is added to the reaction mixture prior to the addition of ligase, this would lead to an inhibition of ligation and a corresponding loss of labelled ligated product in the gel. We would then be able to calculate the percentage of inhibition of ligation by estimating the amount of ligated product in the lane with no inhibitor and comparing it with the lanes containing different inhibitor molecules or with the same inhibitor molecule at different concentrations.

Sequence of human ligase I (P18858 whole entry): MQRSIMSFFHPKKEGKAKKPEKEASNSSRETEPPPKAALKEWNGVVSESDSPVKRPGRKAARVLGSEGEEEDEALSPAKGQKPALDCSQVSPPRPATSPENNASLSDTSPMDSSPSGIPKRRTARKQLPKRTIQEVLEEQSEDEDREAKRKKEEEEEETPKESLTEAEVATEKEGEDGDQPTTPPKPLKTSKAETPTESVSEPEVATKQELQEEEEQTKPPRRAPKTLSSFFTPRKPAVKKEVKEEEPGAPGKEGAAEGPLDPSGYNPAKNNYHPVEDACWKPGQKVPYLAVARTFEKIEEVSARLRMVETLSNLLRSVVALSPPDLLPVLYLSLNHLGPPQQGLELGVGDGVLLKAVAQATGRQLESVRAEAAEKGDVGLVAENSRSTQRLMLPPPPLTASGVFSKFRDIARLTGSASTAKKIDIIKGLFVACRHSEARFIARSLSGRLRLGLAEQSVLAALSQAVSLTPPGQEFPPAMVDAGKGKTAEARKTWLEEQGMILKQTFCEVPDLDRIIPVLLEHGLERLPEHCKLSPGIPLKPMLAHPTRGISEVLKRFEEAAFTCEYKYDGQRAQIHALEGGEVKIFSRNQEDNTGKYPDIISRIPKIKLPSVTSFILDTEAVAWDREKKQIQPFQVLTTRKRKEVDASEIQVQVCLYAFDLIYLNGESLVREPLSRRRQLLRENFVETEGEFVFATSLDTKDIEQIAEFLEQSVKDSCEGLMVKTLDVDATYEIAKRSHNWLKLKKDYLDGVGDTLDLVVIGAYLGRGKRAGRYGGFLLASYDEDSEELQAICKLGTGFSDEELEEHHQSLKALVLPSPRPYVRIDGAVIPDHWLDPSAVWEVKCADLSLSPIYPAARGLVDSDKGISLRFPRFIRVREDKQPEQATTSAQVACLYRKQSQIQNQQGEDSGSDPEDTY

Structure (SMILES)	IC50 [1] [µM]	IC50 [2] [µM]	IC50 [3] [µM]	IC50 [4] [µM]	DNA ligase I / ligation inhibition (in words) (human ligase I)
CCCCCCCCCN(CCCCCCCCC)CC(=O)NC1CCC(=O)N(CC(=O)c2ccccc2)C1=O (stereo not drawn) [Compound 7h, 2Dinonylamino-N-[2,6-dioxo-1-(2-oxo-2-phenyl-ethyl)-piperidin-3-yl]-acetamide]	> 20	> 20	19.9	10.7	–
CCCCCCCCCCCN(CCCCCCCCCCC)CC(=O)NC1CCC(=O)N(CC(=O)c2ccccc2)C1=O (stereo not drawn) [Compound 7j, N-[2,6-Dioxo-1-(oxo-2-phenyl-ethyl)-piperidine-3-yl]-2-diundecylamino-acetamide]	17.4	> 20	> 20	> 20	–
CCCCCCCCN(CCCCCCCC)CC(=O)NC1CCC(=O)N(CC(=O)c2ccccc2)C1=O (stereo not drawn) [Compound 7g, 2-Dioctylamino-N-[2,6-dioxo-1-(2-oxo-2-phenyl-ethyl)-piperidin-3-yl]-acetamide]	> 20	11.6	10.3	7.18	–
CCCCCCCCCCCCCCN(CCCCCCCCCCCCCC)CC(=O)NC1CCC(=O)N(CC(=O)c2ccccc2)C1=O (stereo not drawn) [Compound 7m, N-[2,6-Dioxo-1-(oxo-2-phenyl-ethyl)-piperidine-3-yl]-2-ditetradecylamino-acetamide]	> 20	> 20	> 20	> 20	–
CCCCCCCCCCCCCN(CCCCCCCCCCCCC)CC(=O)NC1CCC(=O)N(CC(=O)c2ccccc2)C1=O (stereo not drawn) [Compound 7l, N-[2,6-Dioxo-1-(oxo-2-phenyl-ethyl)-piperidine-3-yl]-2-ditridecylamino-acetamide]	> 20	> 20	> 20	> 20	–
CCCN(CCC)CC(=O)NC1CCC(=O)N(CC(=O)c2ccccc2)C1=O (stereo not drawn) [Compound 7b, 2-Dipropylamino-N-[2,6-dioxo-1-(2-oxo-2-phenyl-ethyl)-piperidin-3-yl]acetamide]	> 20	> 20	> 20	> 20	–
CCCCCCCN(CCCCCCC)CC(=O)NC1CCC(=O)N(CC(=O)c2ccccc2)C1=O (stereo not drawn) [Compound 7f, 2-Diheptylamino-N-[2,6-dioxo-1-(2-oxo-2-phenyl-ethyl)-piperidin-3-yl]-acetamide]	> 20	7.81	9.33	8.73	–
CCCCN(CCCC)CC(=O)NC1CCC(=O)N(CC(=O)c2ccccc2)C1=O (stereo not drawn) [Compound 7c, 2-Dibutylamino-N-[2,6-dioxo-1-(2-oxo-2-phenyl-ethyl)-piperidin-3-yl]-acetamide]	> 20	> 20	> 20	> 20	–
CCN(CC)CC(=O)NC1CCC(=O)N(CC(=O)c2ccccc2)C1=O (stereo not drawn) [Compound 7a, 2-Diethylamino-N-[2,6-dioxo-1-(2-oxo-2-phenyl-ethyl)-piperidin-3-yl]-acetamide]	> 20	> 20	> 20	> 20	–
CCCCCCN(CCCCCC)CC(=O)NC1CCC(=O)N(CC(=O)c2ccccc2)C1=O (stereo not drawn) [Compound 7e, 2-Dihexylamino-N-[2,6-dioxo-1-(2-oxo-2-phenyl-ethyl)-piperidin-3-yl]-acetamide]	> 20	5.7	3.85	3.74	–
CCCCCCCCCCN(CCCCCCCCCC)CC(=O)NC1CCC(=O)N(CC(=O)c2ccccc2)C1=O (stereo not drawn) [Compound 7i, 2-(Bis-decyl-amino)-N-[2,6-dioxo-1-(2-oxo-2-phenyl-ethyl)-piperidin-3-yl]acetamide]	> 20	> 20	14.2	> 20	–
CCCCCN(CCCCC)CC(=O)NC1CCC(=O)N(CC(=O)c2ccccc2)C1=O (stereo not drawn) [Compound 7d, 2-Dipentylamino-N-[2,6-dioxo-1-(2-oxo-2-phenyl-ethyl)-piperidin-3-yl]-acetamide]	> 20	12.5	> 20	> 20	–
CCCCCCCCCCCCN(CCCCCCCCCCCC)CC(=O)NC1CCC(=O)N(CC(=O)c2ccccc2)C1=O (stereo not drawn) [Compound 7k, N-[2,6-Dioxo-1-(oxo-2-phenyl-ethyl)-piperidine-3-yl]-2-didodecylamino-acetamide]	> 20	> 20	> 20	> 20	–

Now from value to molecule, other results behind:

IC50 [1] [µM]	IC50 [2] [µM]	IC50 [3] [µM]	Structure (SMILES)	IC50 [4] [µM]	DNA ligase I / ligation inhibition (in words) (human ligase I)
8.75	3.26	6.45	CCCCCCCCC[N+](C)(CCCCCCCCC)CC(=O)NC1CCC(=O)N(CC(=O)c2ccccc2)C1=O (stereo not drawn) [Compound 8h, {[2,6-Dioxo-1-(2-oxo-2-phenyl-ethyl)-piperidin-3-ylcarbamoyl]-methyl}-Methyl-dinonyl-ammonium iodide]	2.74	–
> 20	> 20	> 20	CCCCCC[N+](C)(CCCCCC)CC(=O)NC1CCC(=O)N(CC(=O)c2ccccc2)C1=O (stereo not drawn) [Compound 8e, {[2,6-Dioxo-1-(2-oxo-2-phenyl-ethyl)-piperidin-3-ylcarbamoyl]-methyl}-Dihexyl-methyl-ammonium iodide]	> 20	–
> 20	3.3	> 20	CCCCCCC[N+](C)(CCCCCCC)CC(=O)NC1CCC(=O)N(CC(=O)c2ccccc2)C1=O (stereo not drawn) [Compound 8f, {[2,6-Dioxo-1-(2-oxo-2-phenyl-ethyl)-piperidin-3-ylcarbamoyl]-methyl}-Diheptyl-methyl-ammonium iodide]	> 20	–
> 20	> 20	> 20	CCCCCCCCCCCCC[N+](C)(CCCCCCCCCCCCC)CC(=O)NC1CCC(=O)N(CC(=O)c2ccccc2)C1=O (stereo not drawn) [Compound 8l, {[2,6-Dioxo-1-(2-oxo-2-phenyl-ethyl)-piperidin-3-ylcarbamoyl]-methyl}-Methyl-ditridecyl-ammonium iodide]	> 20	did not elicit any DNA ligase I inhibition
> 20	> 20	> 20	CCCCCCCCCCCCCC[N+](C)(CCCCCCCCCCCCCC)CC(=O)NC1CCC(=O)N(CC(=O)c2ccccc2)C1=O (stereo not drawn) [Compound 8m, {[2,6-Dioxo-1-(2-oxo-2-phenyl-ethyl)-piperidin-3-ylcarbamoyl]-methyl}Methyl-ditetradecyl-ammonium iodide]	> 20	did not elicit any DNA ligase I inhibition
> 20	> 20	> 20	CC[N+](C)(CC)CC(=O)NC1CCC(=O)N(CC(=O)c2ccccc2)C1=O (stereo not drawn) [Compound 8a, {[2,6-Dioxo-1-(2-oxo-2-phenyl-ethyl)-piperidin-3-ylcarbamoyl]-methyl}-Diethyl-methyl-ammonium iodide]	> 20	–
> 20	> 20	> 20	CCC[N+](C)(CCC)CC(=O)NC1CCC(=O)N(CC(=O)c2ccccc2)C1=O (stereo not drawn) [Compound 8b, Dipropylamm{[2,6-Dioxo-1-(2-oxo-2-phenyl-ethyl)-piperidin-3-ylcarbamoyl]-methyl}-methyl-ammonium iodide]	> 20	–
> 20	> 20	> 20	CCCCC[N+](C)(CCCCC)CC(=O)NC1CCC(=O)N(CC(=O)c2ccccc2)C1=O (stereo not drawn) [Compound 8d, {[2,6-Dioxo-1-(2-oxo-2-phenyl-ethyl)-piperidin-3-ylcarbamoyl]-methyl}-Methyl-dipentyl-ammonium iodide]	> 20	–
> 20	> 20	> 20	CCCC[N+](C)(CCCC)CC(=O)NC1CCC(=O)N(CC(=O)c2ccccc2)C1=O (stereo not drawn) [Compound 8c, Dibutyl-{[2,6-dioxo-1-(2-oxo-2-phenyl-ethyl)-piperidin-3-ylcarbamoyl]-methyl}-methyl-ammonium iodide]	> 20	–
